This note sets out measurements from patent publication US4783462A, “3(2H)pyridazinone, and anti-allergic agent containing it” (Nissan Chemical Industries Ltd., priority 1985, dated 1988).

The term inhibition denotes the percentage by which the read-out fell short of the control. A high value points to strong suppression.

One series relates to LTD4. In words: LTD4 antagonism in isolated guinea-pig trachea with indomethacin, Test method (ii) (Table 4). Conditions: Cavia porcellus, 0.5 h, LTD4 2×10^-8 g/ml, test compound 10^-6 g/ml, 30 min prior, 5 μmol indomethacin. The format is cell-based. How it is done:
(ii) LTD4 antagonism in guinea-pig trachea
Antagonism for LTD4 was determined in isolated guinea-pig trachea prepared as spiral strip. Tracheal preparations were suspended under 1 g tension in 10 ml organ baths containing 5 μmol of indomethacin and they were incuated for 1 hr prior to use. Contractile responses to LTD4 (2×10^-8 g/ml) were obtained after the maximal response to histamine (10^-4 M). Test compounds dissolved in 100% dimethyl sulfoxide were added to the organ baths (final concentration of 10^-6 g/ml) 30 min prior to LTD4 addition, and then contractile responses to LTD4 were compared with those of control which was obtained from a paired trachea in the absence of test compounds. LTD4 -induced contractions were expressed as a percentage of the maximal response to histamine. The antagonism was determined as follows:
(§1) Antagonism (%)=(1.0-% contraction in test/% contraction in […]

The test system of a further series is LTC4. The series can be described thus: Antagonism in isolated guinea-pig trachea, Test method (i) (Table 3, given as LTC4 antagonism). The class given is cell-based. Conditions: Cavia porcellus, 5 min, test compound 10^-5 g/ml, given as LTC4 antagonisms. The protocol:
(i) LTC4 and LTD4 antagonisms in guinea-pig trachea
Antagonisms for LTC4 and LTD4 were determined in isolated guinea-pig trachea prepared as spiral strip. Tracheal preparations were suspended under 1 g tension in 10 ml organ baths and they were incubated for 1 hr prior to use. Contractile responses to LTC4 (2×10^-8 g/ml) and LTD4 (2×10^-8 g/ml) were obtained after the maximal response to histamine (10^-4 M). Test compounds dissolved in 100% dimethyl sulfoxide were added to the organ baths (final concentration of 10^-5 g/ml or 10^-6 g/ml) 5 min prior to LTC4 and LTD4 addition, and then contractile responses to LTC4 and LTD4 were compared with those of control which was obtained from a paired trachea in the absence of test compounds. LTC4 - and LTD4 -induced contractions were expressed as a percentage of the maximal response to histamine. The antagonism was determined as follows:
as §1

A further series deals with ddY strain male mice. In words: Acute toxicity test, Test method-(2), intraperitoneal. The format is in vivo. Conditions: 7 days. The protocol:
The lethal ratio was determined in ddY strain male mice (4 weeks old) at 7 days after the intraperitoneal injection of test compounds.

The structures appear in SMILES notation.

In turn, `CCCCc1cc(C(=O)OC)ccc1OCCCNc1cnn(CC)c(=O)c1Br` [compound 178] registered an inhibition at 1 µg/mL with LTD4 of 69%.
`COc1cccc(SCCCNc2cnn(C(C)(C)C)c(=O)c2Cl)c1` [Compound No. 14]: the inhibition at 10 µg/mL in the series on LTC4 was 40%. Further, the “Lethal ratio (Death number/Experimental number)” value is 0/2 in the series with ddY strain male mice (200 mg/kg intraperitoneal) and 0/1 in the series on ddY strain male mice (400 mg/kg intraperitoneal).
With `CCc1cc(C=O)ccc1OCCCNc1cnn(C(C)C)c(=O)c1Br` [compound 200], in the series with LTD4, the inhibition at 1 µg/mL was determined as 81%.
`CCCc1cc(C(N)=O)ccc1OCCCNc1cnn(C(C)C)c(=O)c1Br` [Compound No. 122] gave an inhibition at 1 µg/mL in the series on LTD4 of 94%.
The same measure, in the same setting: the same measure for `CCCc1cc(O)ccc1OCCCNc1cnn(C(C)C)c(=O)c1Br` [compound 198]: 86%.
`CCOC(=O)c1ccc(OCCCNc2cnn(CC)c(=O)c2Cl)c(Cl)c1` [Compound No. 10] displayed an inhibition at 10 µg/mL in the series on LTC4 of 46%. For the same molecule, the “Lethal ratio (Death number/Experimental number)” value is recorded as 0/2 with ddY strain male mice (200 mg/kg intraperitoneal) and 0/1 in the series on ddY strain male mice (400 mg/kg intraperitoneal).
In the series on LTC4, `CCCc1cc(C#N)ccc1OCC(O)CNc1cnn(C(C)C)c(=O)c1Cl` (stereo not shown) [Compound No. 145, 4-chloro-5-[3-(2-n-propyl-4-cyanophenoxy)-2-hydroxypropylamino]-2-i-propyl-3(2H)pyridazinone] yielded an inhibition at 10 µg/mL of 85%. For the same molecule, the “Lethal ratio (Death number/Experimental number)” value is reported as 0/2 in the series with ddY strain male mice (200 mg/kg intraperitoneal) and 0/1 in the series with ddY strain male mice (400 mg/kg intraperitoneal).
The corresponding values for `COc1cccc(OCCCOc2cnn(C(C)C)c(=O)c2Cl)c1` [compound 35] are 72%, 0/2 and 0/1.
In the case of `CC(C)(C)n1ncc(NCCCOc2ccc(C(=O)O)cc2Cl)c(Cl)c1=O` [Compound No. 9], in the series with LTC4, testing at 10 µg/mL gave an inhibition of 14%.
Same read-out and setting: the same measure for `CCn1ncc(NCCCOc2ccc(C(=O)O)cc2OC)c(Cl)c1=O` [compound 52]: 23%.
Turning to `CC(C)c1ccccc1OCC(O)COc1cnn(C(C)C)c(=O)c1Cl` (stereo not shown) [compound 142], the inhibition at 10 µg/mL with LTC4 was 69%. Moreover, the “Lethal ratio (Death number/Experimental number)” value is listed as 0/2 in the series with ddY strain male mice (200 mg/kg intraperitoneal) and 0/1 in the series on ddY strain male mice (400 mg/kg intraperitoneal).
Take `COc1cc(C)ccc1OCCCNc1cnn(C(C)C)c(=O)c1Cl` [compound 100]: 10 µg/mL produced 66% inhibition in the series on LTC4.
`CCn1ncc(NCCCOc2ccc(C(=O)OC)cc2Cl)c(Cl)c1=O` [compound 13] had an inhibition at 10 µg/mL with LTC4 of 53%. Besides, the entries for the “Lethal ratio (Death number/Experimental number)” value with ddY strain male mice (200 mg/kg intraperitoneal) and in the series on ddY strain male mice (400 mg/kg intraperitoneal) were 0/2 and 0/1, respectively.
Regarding `COC(=O)CCC(=O)c1ccc(OCC(O)CNc2cnn(C(C)C)c(=O)c2Cl)cc1` (stereo not drawn) [Compound No. 166, 4-chloro-5-{3-[4-(β-methoxycarbonylpropyonyl)phenoxy]-2-hydroxypropylamino}-2-i-propyl-3(2H) pyridazinone], the inhibition at 10 µg/mL in the series with LTC4 was 25%.
In the series on LTC4, `CCCc1cc(C#N)ccc1OCC(O)COc1cnn(C(C)C)c(=O)c1Cl` (stereo not shown) [Compound No. 171, 4-Chloro-5-[3-(2-n-propyl-4-cyanophenoxy)-2-hydroxypropoxy]-2-i-propyl-3(2H)pyridazinone] registered an inhibition at 10 µg/mL of 66%.
In turn, `CCCc1cc(C(=O)O)ccc1OCCCOc1cnn(CC)c(=O)c1Cl` [compound 83] registered an inhibition at 10 µg/mL with LTC4 of 46%.
On the same count and under the same terms, the same measure for `CCCc1cc(C#N)ccc1OCC(=O)COc1cnn(C(C)C)c(=O)c1Cl` [compound 173]: 35%.
The same measure, in the same setting: the same measure for `C=CCc1cc(C(=O)O)ccc1OCCCNc1cnn(C(C)C)c(=O)c1Cl` [compound 70]: 65%; for `CCCc1cc(-c2nnn[nH]2)ccc1OCCCNc1cnn(C(C)(C)C)c(=O)c1Cl` [Compound No. 2, 4-Chloro-5-{3-[2-n-propyl-4-(1H-tetrazol-5-ylphenoxy)]propylamino}-2-t-butyl-3(2H)pyridazinone]: 15%.
For `CCCc1c(OCCCOc2cnn(CC)c(=O)c2Cl)ccc2c(=O)cc(C(=O)O)oc12` [compound 29], in the series with LTC4, the inhibition at 10 µg/mL was found to be 18%. Also, the “Lethal ratio (Death number/Experimental number)” value was 0/2 with ddY strain male mice (200 mg/kg intraperitoneal) and 0/1 in the series with ddY strain male mice (400 mg/kg intraperitoneal).
For `CCCc1cc(C#N)ccc1OCC(=O)CNc1cnn(C(C)C)c(=O)c1Cl` [compound 149], in the series with LTC4, 10 µg/mL produced 81% inhibition.
`CCCc1cc(C(=O)O)ccc1OCC(O)CNc1cnn(C(C)C)c(=O)c1Cl` (stereo not shown) [compound 146] showed an inhibition at 10 µg/mL with LTC4 of 14%.
Still for that read-out and setting: the same measure for `CCOc1ccccc1OCC(O)COc1cnn(C(C)C)c(=O)c1Cl` (stereo not shown) [compound 141]: 54%; for `CCCc1cc(C(N)=O)ccc1OCC(O)CNc1cnn(C(C)C)c(=O)c1Cl` (stereo not shown) [compound 148]: 17%.
In the case of `CCCc1cc(-c2nnn[nH]2)ccc1SCCCNc1cnn(C(C)C)c(=O)c1Cl` [compound 68], the inhibition at 10 µg/mL in the series on LTC4 worked out at 33%.
Regarding `CCCc1cc(C#N)ccc1OCCCNc1cnn(C(C)(C)C)c(=O)c1Cl` [Compound No. 1, 4-Chloro-5-[3-(2-n-propyl-4-cyanophenoxy)propylamino]-2-t-butyl-3(2H)pyridazinone], the inhibition at 10 µg/mL in the series with LTC4 is 49%. Further, the “Lethal ratio (Death number/Experimental number)” value in the series with ddY strain male mice (200 mg/kg intraperitoneal) is listed as 0/2; with ddY strain male mice (400 mg/kg intraperitoneal), 0/1.
`CC(C)n1ncc(NCCCOc2ccc(C(=O)CCC(=O)O)cc2)c(Cl)c1=O` [compound 75]: the inhibition at 10 µg/mL in the series with LTC4 amounted to 16%.
In turn, `CCCc1cc(C(=O)O)ccc1SCC(O)CNc1cnn(C(C)C)c(=O)c1Cl` (stereo not shown) [Compound No. 154, 4-Chloro-5-[3-(2-n-propyl-4-carboxythiophenoxy)-2-hydroxypropylamino]-2-i-propyl-3(2H)pyridazinone] came in with an inhibition at 10 µg/mL in the series with LTC4 of 20%.
On the same count and under the same terms, the same measure for `CCc1cc(C(=O)OC)ccc1OCCCNc1cnn(CC)c(=O)c1Cl` [compound 96]: 77%.
Consider `CCn1ncc(NCCCOc2ccc(C)cc2)c(Cl)c1=O` [compound 54], for which the inhibition at 10 µg/mL with LTC4 turned out to be 64%.
Still for that read-out and setting: next, `COC(COc1ccc(C(=O)C(C)CC(=O)O)cc1)CN(C)c1cnn(C(C)C)c(=O)c1Cl` (stereo not shown) [compound 168]: 21%; `CCCc1cc(C(=O)OC)ccc1SCC(=O)CNc1cnn(C(C)C)c(=O)c1Cl` [compound 156]: 56%.
Same read-out and setting: the same measure for `CCn1ncc(NCCCOc2ccc(OC)cc2)c(Cl)c1=O` [compound 56]: 62%; for `CC(C)n1ncc(NCCc2ccc(O)cc2)c(Cl)c1=O` [compound 66]: 69%.
Take `CCCc1cc(C(=O)O)ccc1OCCCNc1cnn(C)c(=O)c1Cl` [Compound No. 12]: the inhibition at 10 µg/mL with LTC4 stood at 35%.
Molecule `COc1cccc(OCCOc2cnn(C(C)C)c(=O)c2Cl)c1` [compound 45] showed an inhibition at 10 µg/mL in the series on LTC4 of 27%. Further, the “Lethal ratio (Death number/Experimental number)” value in the series with ddY strain male mice (200 mg/kg intraperitoneal) is 0/2; with ddY strain male mice (400 mg/kg intraperitoneal) it was 0/1.
In the case of `CCCc1cc(C#N)ccc1OCCCOc1cnn(C(C)C)c(=O)c1Cl` [compound 87], in the series on LTC4, the inhibition at 10 µg/mL amounted to 60%.
Take `CCCc1cc(C(=O)O)ccc1SCCCNc1cnn(C(C)C)c(=O)c1Cl` [compound 62]: the inhibition at 10 µg/mL in the series on LTC4 stood at 57%.
The same measure, in the same setting: the same measure for `CCn1ncc(NCCCOc2ccccc2OC)c(Cl)c1=O` [compound 50]: 35%; for `CCOc1ccc(OCCCNc2cnn(CC)c(=O)c2Cl)cc1` [compound 53]: 59%.
On the same count and under the same terms, next, `COc1ccc(OCCCNc2cnn(C(C)C)c(=O)c2Cl)cc1` [compound 58]: 88%; `COC(=O)CCC(=O)c1ccc(OCCCN(C)c2cnn(C(C)C)c(=O)c2Cl)cc1` [compound 77]: 17%.
The same measure, in the same setting: next, `CCc1cc(OC)ccc1OCCCNc1cnn(C(C)C)c(=O)c1Cl` [compound 107]: 85%.
The molecule `CCCc1cc(C(=O)O)ccc1OCC(CN(C)c1cnn(C(C)C)c(=O)c1Cl)OC` (stereo not shown) [compound 165] came in with an inhibition at 10 µg/mL with LTC4 of 33%.
On the same count and under the same terms, next, `COC(=O)CCC(=O)c1ccc(OCCCNc2cnn(C(C)C)c(=O)c2Cl)cc1` [compound 76]: 57%.
As to `CCCc1c(OCCCOc2cnn(C(C)(C)C)c(=O)c2CC)ccc2c(=O)cc(C(=O)OCC)oc12` [compound 26], in the series with LTC4, the inhibition at 10 µg/mL was 15%.
On the same count and under the same terms, next, `CCCc1cc(C#N)ccc1SCCCNc1cnn(C(C)C)c(=O)c1Cl` [compound 61]: 73%; `COC(=O)c1ccc(OCCCNc2cnn(C(C)C)c(=O)c2Cl)c(C(C)C)c1` [compound 88]: 97%; `COC(=O)CC(C)C(=O)c1ccc(OCC(CN(C)c2cnn(C(C)C)c(=O)c2Cl)OC)cc1` (stereo not drawn) [Compound No. 167, 4-Chloro-5-{3-[4-(β-methoxycarbonyl-α-methylpropionyl)phenoxy]-2-methoxypropyl-N-methylamino}-2-i-propyl-3(2H)pyridazinone]: 30%.
